In ChEMBL document CHEMBL2062504, “Diterpenoid alkaloids from the lateral root of Aconitum carmichaelii” (J Nat Prod, 2012):
Active and inactive are the calls of the source.

Tests used:
[1] = tested on: MCF7; test: Cytotoxicity against human MCF7 cells at 10 uM after 96 hrs by MTT assay; type: functional, cell-based
[2] = tested on: BGC-823; test: Cytotoxicity against human BGC823 cells at 10 uM after 96 hrs by MTT assay; type: functional, cell-based
[3] = tested on: WB-F344; test: Hepatoprotective activity against DL-galactosamine-induced cell death in rat WB-F344 cells at 10 uM incubated for 1 hr prior to DL-galactosamine-challenge measured after 24 hrs by MTT assay; type: functional, cell-based
[4] = tested on: Liver microsomes; test: Antioxidant activity in rat liver microsome assessed as inhibition of FeSO4-induced lipid peroxidation at 10 uM incubated for 15 mins prior to FeSO4-challenge measured after 15 mins by modified thiobarbituric acid method; type: functional
[5] = tested on: A549; test: Cytotoxicity against human A549 cells at 10 uM after 96 hrs by MTT assay; type: functional, cell-based
[6] = tested on: Peritoneal macrophage cell; test: Antiinflammatory activity in mouse peritoneal macrophages assessed as inhibition of nitric oxide production at 10 uM; type: functional, cell-based
[7] = tested on: Bel-7402; test: Cytotoxicity against human Bel7402 cells at 10 uM after 96 hrs by MTT assay; type: functional, cell-based
[8] = tested on: HCT-8; test: Cytotoxicity against human HCT8 cells at 10 uM after 96 hrs by MTT assay; type: functional, cell-based
[9] = tested on: KETR3; test: Cytotoxicity against human Ketr3 cells at 10 uM after 96 hrs by MTT assay; type: functional, cell-based

COC[C@]12CN(C)C3[C@@H]4[C@H](OC)[C@H]1[C@@]3([C@@H](OC)C[C@H]2OC(C)=O)[C@@H]1C[C@@]2(O)[C@H](OC(=O)c3ccccc3)[C@@H]1[C@]4(O)[C@@H](OC(C)=O)[C@@H]2OC
inactive: Activity [1] | Activity [2] | Activity [3] | inhibition [4] | Activity [5] | inhibition [6] | Activity [7] | Activity [8] | Activity [9]

COC[C@]12CN(C)C3[C@@H]4[C@H](OC)[C@H]1[C@@]3([C@@H](OC)C[C@H]2OC(C)=O)[C@]1(O)C[C@@]2(O)[C@H](OC(=O)c3ccccc3)[C@@H]1[C@]4(OC)[C@@H](O)[C@@H]2OC
inactive: Activity [1] | Activity [2] | Activity [3] | inhibition [4] | Activity [5] | inhibition [6] | Activity [7] | Activity [8] | Activity [9]

COC[C@@]12CC[C@H](OC)[C@]34C([C@H]([C@H](OC)[C@H]13)[C@]1(OC(C)=O)[C@H]3[C@@H](OC(=O)c5ccccc5)[C@](O)(C[C@]34O)[C@@H](OC)[C@@H]1O)N(C)C2
inactive: Activity [1] | Activity [2] | Activity [3] | inhibition [4] | Activity [5] | inhibition [6] | Activity [7] | Activity [8] | Activity [9]

C=C1C[C@]23C[C@H]4[C@@H]5[C@@]6(C)C[C@H](OC(=O)c7ccccc7)[C@@H](OC(C)=O)[C@]57C(C2[C@@H](O)[C@H]1[C@@H](OC(C)=O)[C@H]37)N4[C@H]6O
inactive: Activity [1] | Activity [2] | Activity [3] | inhibition [4] | Activity [5] | inhibition [6] | Activity [7] | Activity [8] | Activity [9]

CCN1C[C@]2(COC)CC[C@H](O)[C@]34C1[C@H]([C@H](OC)[C@H]23)[C@]1(O)[C@H]2[C@@H](OC(=O)c3ccccc3)[C@H](C[C@H]24)[C@@H](OC)[C@@H]1O
inactive: Activity [1] | Activity [2] | Activity [3] | inhibition [4] | Activity [5] | inhibition [6] | Activity [7] | Activity [8] | Activity [9]

CCN1C[C@]2(COC)CC[C@H](OC)[C@]34C1[C@H](C[C@H]23)[C@]1(O)[C@H]2[C@@H](OC(=O)c3ccccc3)[C@](O)(C[C@H]24)[C@@H](OC)[C@@H]1O
inactive: Activity [1] | Activity [2] | Activity [3] | inhibition [4] | Activity [5] | inhibition [6] | Activity [7] | Activity [8] | Activity [9]

C=C1C[C@]23C4[C@@H](OC(=O)[C@@H](C)CC)[C@H]1[C@@H](O)[C@H]2[C@]12C[C@@H](OC(=O)CC)C[C@]5(C)[C@H]1[C@H]([C@@H]3O)[N+](C)([C@H]42)[C@H]5O
inactive: Activity [1] | Activity [2] | Activity [3] | inhibition [4] | Activity [5] | inhibition [6] | Activity [7] | Activity [8] | Activity [9]

COC[C@]12CN(C)C3[C@@H]4[C@H](OC)[C@H]1[C@@]3([C@@H](OC)C[C@H]2O)[C@@H]1C[C@@]2(O)[C@H](OC(=O)c3ccccc3)[C@@H]1[C@]4(O)[C@@H](OC(C)=O)[C@@H]2OC
inactive: Activity [1] | Activity [2] | Activity [3] | inhibition [4] | Activity [5] | inhibition [6] | Activity [7] | Activity [8] | Activity [9]
